The values that follow come from patent US4634707A, “5-Pyrimidinecarboxamides and treatment of leukemia and tumors therewith” (Uniroyal Chemical Company, priority 1984, dated 1987).

The test system of experiment [1] is Ehrlich Ascites carcinoma. Particulars: Ehrlich Ascites carcinoma in mice; Chem. & Pharm. Bull. (Tokyo) 8, 1021-1028 (1960); cited from earlier work.
The subject of another experiment is L1210 leukemia. The experiment is described as follows: NCI 3LE31, i.p.-implanted L1210 lymphoid leukemia. It is filed as in vivo, DBA/2 mice. The following applies: for activity in i.p.-implanted lymphoid leukemia test (in words): 3LE31, reproducible T/C of 150% or higher is considered significant activity; for response vs control in vivo at 400 mg/kg: 400 mg/kg i.p. daily for nine days. Here is the method:
The spectrum of antitumor activity of the compound of Example 1 was determined employing a number of standard National Cancer Institute (NCI) protocols. The antitumor activity was determined in vivo against several different tumors, employing various treatment schedules and routes of administration.
Samples of the test compounds of Examples 1-10 and a number of structurally-related control compounds were tested in accordance with National Cancer Institute test protocol 3LE31 (NCI Protocol 1.100, Cancer Chemotherapy Reports Part 3, Vol. 3, No. 2, September 1972) to determine the effects of the several compounds on i.p.-implanted L1210 leukemia (J. Nat'l. Cancer Inst. 13(5):1328, 1953). Each test involved implantation of the leukemia cells in six DBA/2 mice, one sex per experiment, the male mice weighing a minimum of 18 grams and the female mice weighing a minimum of 17 grams, and all of the test animals being within a three gram weight range. The test compound was administered by i.p. injections, in 0.1 ml. doses of diluted ascitic fluid (10^5 cells per dose), commencing one day after the tumor implant and continuing daily for nine days.
The test animals were weighed and survivors recorded on a regular basis during a thirty day test period. The ratio of survival time for the treated and control animals (T/C) was determined as a percentage.
The tests were carried out at varying dosage levels and with varying numbers of repetitions, depending upon the results obtained with each test compoud. […] A reproducible T/C of 150% or higher is considered significant activity.
The number of mice "cured", viz., those surviving from each animal test group after the thirty day test period, is indicated in parenthesis following the T/C percentage data in Table III below: […]

[2] abbreviates: 200 mg/kg i.p. daily for nine days.
Where [3] appears, read: Mus musculus, L1210, ip, 25 mg/kg i.p. daily for nine days, read-out: T/C % (survival time treated/control).
Where [4] appears, read: Mus musculus, L1210, ip, 50 mg/kg i.p. daily for nine days, read-out: T/C % (survival time treated/control).
Where [5] appears, read: Mus musculus, L1210, ip, 100 mg/kg i.p. daily for nine days, read-out: T/C % (survival time treated/control).
Setting [6] is: 25 mg/kg i.p. daily for nine days.
Setting [7] is: 50 mg/kg i.p. daily for nine days.
Setting [8] is: 100 mg/kg i.p. daily for nine days.
Where [9] appears, read: Mus musculus, L1210, ip, 200 mg/kg i.p. daily for nine days, read-out: T/C % (survival time treated/control).
Where [10] appears, read: Mus musculus, L1210, ip, read-out: T/C % (survival time treated/control).

With `O=C1NC(=O)C(C(=O)Nc2ccccc2)C(=O)N1` [5-phenylcarbamoylbarbituric acid], the “anti-tumor activity (in words)” value in experiment [1] is given as “exhibited anti-tumor activity”.

Turning to `Cn1c(O)c(C(=O)Nc2ccccc2)c(=O)[nH]c1=O` [1-methyl derivative], the “anti-tumor activity (in words)” value in experiment [1] is listed as “neither of its 1-methyl or 1-phenyl-substituted derivatives, exhibited anti-tumor activity”.

As to `Cn1c(=S)[nH]c(O)c(C(=O)Nc2ccccc2)c1=O` [Control G], the “T/C % (survival time treated/control)” value in the experiment on L1210 leukemia (setting [2]) is listed as “Toxic”. For the same compound, the response vs control in vivo at 25 mg/kg in the experiment with L1210 leukemia (setting [3]) is 94%. For the same compound, the response vs control in vivo at 50 mg/kg with L1210 leukemia (setting [4]) stood at 98%. The response vs control in vivo at 100 mg/kg with L1210 leukemia (setting [5]) was determined as 87%.

On to `Cn1c(=S)[nH]c(O)c(C(=O)Nc2ccccc2)c1=O` [Control H], for which the “T/C % (survival time treated/control)” value in the experiment with L1210 leukemia (setting [6]), in the experiment with L1210 leukemia (setting [7]), in the experiment with L1210 leukemia (setting [8]) and in the experiment on L1210 leukemia (setting [2]) was “Toxic” throughout. Further, in the experiment on L1210 leukemia (Mus musculus, L1210, ip, 1.56 mg/kg i.p. daily for nine days, read-out: T/C % (survival time treated/control)), the response vs control in vivo at 1.56 mg/kg worked out at 97%. In the experiment with L1210 leukemia (Mus musculus, L1210, ip, 3.12 mg/kg i.p. daily for nine days, read-out: T/C % (survival time treated/control)), the response vs control in vivo at 3.12 mg/kg turned out to be 98%. In addition, in the experiment on L1210 leukemia (Mus musculus, L1210, ip, 6.25 mg/kg i.p. daily for nine days, read-out: T/C % (survival time treated/control)), the response vs control in vivo at 6.25 mg/kg stood at 98%. For the same compound, the response vs control in vivo at 12.5 mg/kg with L1210 leukemia (Mus musculus, L1210, ip, 12.5 mg/kg i.p. daily for nine days, read-out: T/C % (survival time treated/control)) amounted to 98%.

Turning to `O=c1[nH]c(O)c(C(=S)Nc2ccccc2)c(=O)[nH]1` [Control X], the response vs control in vivo at 25 mg/kg in the experiment with L1210 leukemia (setting [3]) came to 105%. The response vs control in vivo at 50 mg/kg in the experiment with L1210 leukemia (setting [4]) turned out to be 98%. Besides, in the experiment with L1210 leukemia (setting [5]), the response vs control in vivo at 100 mg/kg stood at 97%. Besides, in the experiment with L1210 leukemia (setting [9]), the response vs control in vivo at 200 mg/kg came to 104%.

For the compound `CC(C)c1cccc(C(C)C)c1NC(=O)c1c(O)n(-c2ccccc2)c(=S)n(-c2ccccc2)c1=O` [Control U], in the experiment with L1210 leukemia (setting [3]), the response vs control in vivo at 25 mg/kg was 101%. The response vs control in vivo at 50 mg/kg in the experiment with L1210 leukemia (setting [4]) was determined as 100%. For the same compound, the response vs control in vivo at 100 mg/kg with L1210 leukemia (setting [5]) was found to be 104%. Moreover, the response vs control in vivo at 200 mg/kg in the experiment on L1210 leukemia (setting [9]) was 112%.

Turning to `O=C(Nc1ccccc1)c1c(O)[nH]c(=O)[nH]c1=O` [Control C], the “activity in i.p.-implanted lymphoid leukemia test (in words)” value in the experiment on L1210 leukemia is reported as “exhibited significant activity”. Also, the response vs control in vivo at 400 mg/kg with L1210 leukemia (setting [10]) is 233%.

For the compound `O=C(Nc1ccc(Cl)cc1)c1c(O)[nH]c(=S)n(-c2ccccc2)c1=O` [Control R], the “T/C % (survival time treated/control)” value in the experiment on L1210 leukemia (setting [6]) is 106%; with L1210 leukemia (setting [7]) it was 121%; in the experiment on L1210 leukemia (setting [8]), 88%; in the experiment on L1210 leukemia (setting [2]), “Toxic”.

For `O=C(Nc1ccc(F)cc1)c1c(O)[nH]c(=S)[nH]c1=O` [Example 5, N-(4-fluorophenyl)-1,2,3,4-tetrahydro-6-hydroxy-4-oxo-2-thioxo-5-pyrimidinecarboxamide], the “T/C % (survival time treated/control)” value with L1210 leukemia (setting [2]) was “Toxic”. For the same compound, in the experiment on L1210 leukemia, the “activity in i.p.-implanted lymphoid leukemia test (in words)” value is listed as “With the exception of the compound of Example 5, the materials of the other examples similarly exhibited significant activity”. For the same compound, the response vs control in vivo at 25 mg/kg in the experiment on L1210 leukemia (setting [3]) came to 111%. In addition, the response vs control in vivo at 50 mg/kg in the experiment on L1210 leukemia (setting [4]) worked out at 112%. For the same compound, the response vs control in vivo at 100 mg/kg in the experiment with L1210 leukemia (setting [5]) was determined as 133%.

Take `O=c1[nH]c(=S)[nH]c(O)c1C(=S)Nc1ccccc1` [Control W]: the response vs control in vivo at 25 mg/kg in the experiment with L1210 leukemia (setting [3]) worked out at 101%. The response vs control in vivo at 50 mg/kg in the experiment with L1210 leukemia (setting [4]) was 102%. In the experiment on L1210 leukemia (setting [5]), the response vs control in vivo at 100 mg/kg turned out to be 94%. Besides, the response vs control in vivo at 200 mg/kg with L1210 leukemia (setting [9]) stood at 103%.

Regarding `O=C(Nc1ccccc1)c1c(O)n(-c2ccccc2)c(=O)[nH]c1=O` [1-phenyl derivative], in experiment [1], the “anti-tumor activity (in words)” value is reported as “neither of its 1-methyl or 1-phenyl-substituted derivatives, exhibited anti-tumor activity”.

For `O=C(Nc1ccccc1)c1c(O)[nH]c(=S)n(-c2ccccc2)c1=O` [Control O], the “T/C % (survival time treated/control)” value in the experiment on L1210 leukemia (setting [2]) is given as “Toxic”. The response vs control in vivo at 25 mg/kg in the experiment with L1210 leukemia (setting [3]) is 104%. Moreover, in the experiment with L1210 leukemia (setting [4]), the response vs control in vivo at 50 mg/kg is 115%. Also, in the experiment on L1210 leukemia (setting [5]), the response vs control in vivo at 100 mg/kg was found to be 123%.

Take `COc1ccc(NC(=O)c2c(O)[nH]c(=S)[nH]c2=O)cc1` [Example 6, 1,2,3,4-tetrahydro-6-hydroxy-N-(4-methoxyphenyl)-4-oxo-2-thioxo-5-pyrimidinecarboxamide]: the response vs control in vivo at 25 mg/kg in the experiment on L1210 leukemia (setting [3]) is 112%. For the same compound, the response vs control in vivo at 50 mg/kg in the experiment on L1210 leukemia (setting [4]) stood at 108%. In addition, the response vs control in vivo at 100 mg/kg in the experiment on L1210 leukemia (setting [5]) came to 104%. Besides, the response vs control in vivo at 200 mg/kg in the experiment on L1210 leukemia (setting [9]) was 127%. Also, the response vs control in vivo at 400 mg/kg with L1210 leukemia (setting [10]) was 127%.
